A word on the Kd: it is the constant that tells how readily two partners part at equilibrium.

Numbered stars: 1 amine (or outer) side, 2 acyl side, 3 side chain; on linkers, the order of the positions; unused ones are H or OH. Bridge positions count the residues as written; N and C are the ends. Square brackets hold non-standard residues; d marks the D form. Peptide text beside a SMILES is read from it. * marks the point of attachment. X1 = N=c1ccc2c(-c3ccccc3C(=O)*)c3ccc(N)c(S(=O)(=O)O)c3oc-2c1S(=O)(=O)O; NMeGABA = CN(CCCC(=O)[*:2])[*:1]

The target of assay [1] is Kv1.3 channel. The note with it: read-out: Kd of A-HgTx with Kv1.3 channel; cited from earlier work.
The target in assay [2] is T1, K-Kv1.1 channel (hKv1.1S369T with mKate2) (Homo sapiens, UniProt Q09470, S369T).
T1 construct: these fragments were combined and amplified using terminal primers to obtain the whole mutated gene; expressed in transfected cells; host or cells: mouse neuroblastoma Neuro2a cells, transient transfection with pmKate2-KCNA1m1
T1 sequence (Q09470 whole entry S369T, the tested form may be a part): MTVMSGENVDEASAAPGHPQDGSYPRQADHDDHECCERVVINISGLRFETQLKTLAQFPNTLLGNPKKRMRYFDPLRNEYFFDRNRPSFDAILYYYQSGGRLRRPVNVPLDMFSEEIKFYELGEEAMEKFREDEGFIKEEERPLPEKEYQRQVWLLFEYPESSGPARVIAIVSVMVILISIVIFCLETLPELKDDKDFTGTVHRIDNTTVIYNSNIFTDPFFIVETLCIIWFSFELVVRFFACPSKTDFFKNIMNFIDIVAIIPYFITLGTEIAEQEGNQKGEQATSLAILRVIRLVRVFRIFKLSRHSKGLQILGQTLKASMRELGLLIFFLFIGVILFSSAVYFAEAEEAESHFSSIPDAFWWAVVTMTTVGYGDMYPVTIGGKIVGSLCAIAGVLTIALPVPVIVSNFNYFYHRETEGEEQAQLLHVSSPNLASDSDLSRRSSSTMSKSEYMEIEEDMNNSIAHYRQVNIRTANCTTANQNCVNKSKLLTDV
The assay is described as follows: Whole-cell patch-clamp of currents through K-Kv1.1 in Neuro2a cells. Format: cell-based. As for the experimental part: Membrane ion currents through the K-Kv1.1 channel were recorded at room temperature by the patch-clamp technique using the standard whole-cell configuration as described earlier.
Briefly, Neuro2a cells attached to coverslips (10 mm in diameter) pre-coated with poly-D-lysine were immersed in a buffer (140 mM NaCl, 2.8 mM KCl, 2 mM MgCl2, 2 mM CaCl2, 10 mM glucose, 10 mM HEPES, pH 7.4) and perfused continuously. Micropipettes with a tip resistance of 6–8 MΩ were filled with a pipette solution containing 140 mM KCl, 6 mM CaCl2, 2 mM MgCl2, 2 mM MgATP, 0.4 mM NaGTP, 10 mM HEPES, 20 mM BAPTA/KOH (pH 7.3). The patches were routinely held at a holding potential of −40 mV. The potential was changed from −70 to +70 mV (20 mV step) using 200 ms pulses, which were applied incrementally with an interval of 20 s. Finally, the potential returned to the holding potential.
Cells were measured 24–48 h after transfection. The cells were selected by K-Kv1.1 fluorescence. The cells were analyzed if their input resistance was more than 350 MΩ. The currents were recorded using an EPC-10 amplifier (HEKA Elektronik, Stuttgart, Germany).
[…] The toxins were dissolved in a complete medium.
The measured concentration dependence of current inhibition through the K-Kv1.1 channel by A-HgTx was analyzed with the following equation:Irel(L) = 100/(1 + (IC50/L)^h) (1) where Irel is a decrease in current (%), L is the concentration of A-HgTx, IC50 is the concentration of A-HgTx that induces a 50% decrease in current, and h is the Hill coefficient.
In general terms: Patch clamp records ionic current or voltage across a cell membrane.

Assay [3] relates to Kv1.3 channel. The note with it: cited from earlier work. As for the experimental part: Exploring the potential of this analytical system, we have measured the Kap of the complex between the recombinant peptide Ce1 and the Kv1.1 channel (Figure 8c, Table 2) and classified Ce1 as a moderately active ligand of this channel. Toxin Ce1 was found in the venom of the scorpion Centruroides elegans and characterized as a high-affinity pore blocker of the Kv1.3 channel (IC50 = 0.7 nM). Its activity for the Kv1.1 channel was not previously reported.

In assay [4] the target is T2, mKate2-tagged human Kv1.1 (S369T) channel (K-Kv1.1) (Homo sapiens, UniProt Q09470, S369T).
T2 construct: these fragments were combined and amplified using terminal primers to obtain the whole mutated gene; expressed in transfected cells; host or cells: mouse neuroblastoma Neuro2a cells, transient transfection with pmKate2-KCNA1m1
T2 sequence (Q09470 whole entry S369T, the tested form may be a part): as above
Kind of assay: Competitive binding of peptide pore blocker and A-HgTx to K-Kv1.1 on the plasma membrane of Neuro2a cells (confocal microscopy). The note with it: A-HgTx (2 nM) displacement compared in complete medium, Na+ and K+ buffers. As for the experimental part:
To analyze the binding of A-HgTx, A-HgTx (0.25–4 nM) was added to cells in a complete medium for 60 min. To analyze competitive binding, A-HgTx (2 nM), together with the selected peptide (0.05–160 nM), was added to cells in a complete medium for 60 min.
To compare ligand binding with closed and open channels, ligands were added to cells (60 min, 37 °C) in a buffer (20 mM HEPES pH 7.4, 0.9 mM CaCl2, 0.5 mM MgCl2, 0.1% BSA) supplemented with 4 mM KCl and 150 mM NaCl (Na^+ buffer) or with 150 mM KCl (K^+ buffer).
The fluorescence of the K-Kv1.1 and K-Kv1.1wt channels was excited at 561 nm and detected in the 650–700 nm region. A-HgTx fluorescence was excited at 488 nm and detected in the 495–535 nm region. Sequential scanning was used to measure the cellular distributions of A-HgTx and mKate2 fluorescence in order to avoid interference of mKate2 fluorescence with cellular autofluorescence excited at 488 nm.
Quantitative analysis of the interaction of A-HgTx with K-Kv1.1 was carried out in accordance with the procedure developed previously for A-HgTx and the fluorescently labeled Kv1.3 channel. Briefly, the regions of interest with K-Kv1.1 on the plasma membrane were selected in the confocal images and used to create binary (0;1) masks that described the membranous distribution of K-Kv1.1. The confocal images of K-Kv1.1 and A-HgTx were multiplied by the corresponding mask, and the average fluorescence intensities of A-HgTx (Ili) and K-Kv1.1 (Ici) corrected for the background signal were calculated for each i-cell. Ratio Ri = Ili/Ici was calculated and averaged over 15–20 cells to obtain the Rav value and the standard deviation.
To analyze the competitive binding of the studied peptide pore blocker and A-HgTx to K-Kv1.1 on the cellular membrane, Rav data were plotted depending on the blocker concentration (C) at the constant A-HgTx concentration (L) and fitted with the following equation:Rav(C) = Rav0/(1 + C/DC50)(3) where DC50 is the blocker concentration displacing 50% of A-HgTx from the complex with K-Kv1.1, and Rav0 is Rav at C = 0.
The apparent dissociation constant (Kap) of the complex between the studied blocker and the K-Kv1.1 channel was calculated using the Cheng–Prusoff equation:Kap = DC50/(1 + L/Kd).(4)
Two independent experiments were performed, and the Kav data were averaged and presented as mean ± SEM. Fifteen to twenty-five treated cell images were the average value for each point on the curves of A-HgTx binding to the K-Kv1.1 channel.

The test system of the next assay is Kv1.1 channel. The note with it: concentrations up to 25 nM; cited from earlier work. The text has this:
Ce1 is a member of the α-KTx2 subfamily of scorpion toxins and is a close homolog of the well-studied toxins HgTx1, MgTx, and noxiustoxin (NTx, Table 3). […] Thus, Ce1 surpasses the closest homolog NTx in affinity for Kv1.1, but inferiors MgTx and especially HgTx in this characteristic (Table 2).

Regarding `CC[C@H](C)[C@@H]1NC(=O)CNC(=O)[C@H](Cc2ccccc2)NC(=O)[C@H](CCC(N)=O)NC(=O)[C@H](C)NC(=O)[C@H](CCCCN)NC(=O)[C@@H]2CSSC[C@@H](C(=O)N[C@@H](Cc3ccc(O)cc3)C(=O)N3CCC[C@H]3C(=O)N[C@@H](Cc3c[nH]cn3)C(=O)O)NC(=O)[C@H](CCCCN)NC(=O)[C@@H]3CSSC[C@H](NC(=O)[C@H](CCC(N)=O)NC(=O)[C@H](CCCCN)NC(=O)[C@@H]4CCCN4C(=O)[C@H](CO)NC(=O)[C@H]([C@@H](C)O)NC(=O)[C@@H](NC(=O)[C@H](CCCCN)NC(=O)[C@@H](NC(=O)[C@H](CC(=O)O)NC(=O)[C@@H](NC(=O)[C@@H](NC(=O)[C@@H](NC(=O)CCCN(C)C(=O)c4ccccc4-c4c5ccc(=N)c(S(=O)(=O)O)c-5oc5c(S(=O)(=O)O)c(N)ccc45)[C@@H](C)O)C(C)C)[C@@H](C)CC)C(C)C)CSSC[C@H](NC(=O)[C@H](CCCCN)NC(=O)[C@H](C)NC(=O)CNC(=O)[C@H](C)NC(=O)[C@H](CCCNC(=N)N)NC1=O)C(=O)N[C@@H](CCSC)C(=O)N[C@@H](CC(N)=O)C(=O)NCC(=O)N[C@@H](CCCCN)C(=O)N3)C(=O)N[C@@H](CC(C)C)C(=O)N1CCC[C@H]1C(=O)N1CCC[C@H]1C(=O)N2` [A-HgTx] (X1-[NMeGABA]TVIDVKCTSPKQCLPPCKAQFGIRAGAKCMNGKCKCYPH-OH; disulfide 8-30, 14-35, 18-37; C-terminus assumed), on Kv1.3 channel [1], the Kd was 0.3 ± 0.13 nM. Also, the “decrease in the amplitude of the current through K-Kv1.1” value in assay [2] (5 nM A-HgTx, applied voltage from −30 to 70 mV) is approximately 50%. The IC50 in assay [2] (+50 mV voltage, mean ± SEM (n = 6), SEM, read-out: IC50 (concentration of A-HgTx inhibiting current by 50%)) amounted to 4.8 ± 0.2 nM. The maximum current inhibition entry in assay [2] (+50 mV, A-HgTx above 15 nM) is on record as “ca. 75%”.
For the molecule `CC[C@H](C)[C@H](NC(=O)[C@@H](NC(=O)[C@@H](N)[C@@H](C)O)C(C)C)C(=O)N[C@@H](CC(N)=O)C(=O)N[C@H](C(=O)N[C@@H](CCCCN)C(=O)N[C@H]1CSSC[C@@H]2NC(=O)[C@H](CCCCN)NC(=O)[C@H](C)NC(=O)CNC(=O)[C@H](C)NC(=O)[C@H](Cc3c[nH]cn3)NC(=O)[C@@H]3CCCN3C(=O)CNC(=O)[C@H](Cc3ccc(O)cc3)NC(=O)[C@H](CC(C)C)NC(=O)[C@H](CC(=O)O)NC(=O)[C@H](CCCCN)NC(=O)[C@@H]3CSSC[C@@H](C(=O)N[C@@H](Cc4ccc(O)cc4)C(=O)N[C@@H](CC(N)=O)C(=O)N[C@@H](CC(N)=O)C(=O)O)NC(=O)[C@H](CCCCN)NC(=O)[C@H](CSSC[C@H](NC(=O)[C@H](CCC(N)=O)NC(=O)[C@H](CCCCN)NC(=O)[C@@H]4CCCN4C(=O)[C@H](CO)NC(=O)[C@H]([C@@H](C)O)NC1=O)C(=O)N[C@@H](CC(C)C)C(=O)N[C@@H](CCCCN)C(=O)N1CCC[C@H]1C(=O)N3)NC(=O)[C@H](CCCCN)NC(=O)CNC(=O)[C@H](CC(N)=O)NC(=O)[C@H](CCSC)NC2=O)C(C)C` [Ce1] (H-TVINVKCTSPKQCLKPCKDLYGPHAGAKCMNGKCKCYNN-OH; disulfide 7-29, 13-34, 17-36 (inferred); N-terminus and C-terminus assumed), in the assay on Kv1.3 channel [3], the IC50 was 0.7 nM. Further, the “effect of channel state (closed or open) on affinity of K-Kv1.1 for the peptide” value in assay [4] is reported as “does not affect the affinity”.
As for noxiustoxin [NTx], the “block of the Kv1.1 channel” value in the assay on Kv1.1 channel is on record as “does not block”.
